{"source": "patent US20220362329A1", "about": "“TREATING ACUTE LIVER DISEASE WITH TLR-MIK INIHIBITORS” (Yeda Research and Development Co. Ltd., priority 2020, published 2022)", "key": {"[1]": {"system": "Ly6C-positive monocytes", "assay": "Measurement of monocyte infiltration by FACS in ALF mouse models", "format": "in vivo, mice", "conditions": "for monocyte infiltration: APAP-induced ALF model, inhibitor i.p. 1 hour after 500 mg/kg APAP", "method": "(§1) Mouse models—8 weeks old C57BL6 male mice were injected intraperitoneally with 500 mg/kg body mass acetaminophen (APAP) in PBS or 300 mg/kg of thioacetamide (TAA) in PBS, 20 hours prior to sample collection. To avoid known circadian effects, all injections were performed between 1 pm and 2 pm. Control mice were injected with vehicle (PBS). For antibiotic treatment, mice were given a cocktail of ampicillin (1 g/l), kanamycin (1 g/l), vancomycin (0.5 g/l) and metronidazole (1 g/l) in drinking water for two weeks. MyD88 and Trif double knockout mice were 8 weeks old, males on C57BL6 background^55. All experimental procedures involving mice were approved by the local IACUC.\nMeasurement of monocyte infiltration—Livers harvested from mice were finely chopped with sterile scissors and digested with 4 ml of pre-warmed 0.4 mg/ml protease and 0.1 U/ml collagenase D (EBS buffer: 8 g/l NaCl, 0.4 g/l KCl, 88 mg/l NaH2PO4.H2O, 120 mg/l Na2HPO4.H2O, 2.38 g/l HEPES, 0.35 g/l NaHCO3, 0.42 g/l CaCl2) for 30 minutes at 37° C. while shaking Following, 10 ml of cold PBS was added and the suspension was filtered through a 100 μm mesh. To deplete hepatocytes, samples were centrifuged at 30 g for 5 minutes and the supernatant was transferred to new tubes. Cells were collected by centrifugation at 580 g. To lyse red blood cells, 1 ml of Gibco™ ACK Lysing Buffer was added and cells were incubated at room temperature for one minute. Subsequently, cold PBS was added and cells were collected by centrifugation at 580 g.\nReceptors on the cells were first blocked with TruStain FcX anti-mouse CD16/32, then the cells were washed with FACS buffer (PBS without calcium and magnesium, 1% FCS), collected by centrifugation at 580 g and stained with CD45-PECy7 (Biolegend, 30F11, cat. 103114), F4/80-FITC (Serotec, Cl:A3-1, cat. G00018) and Ly6C-APC (Biolegend, HK14, cat. 128016) antibodies for 1 hour on ice. Finally, the cells were washed with FACS buffer, collected by centrifugation at 580 g, resuspended in FACS buffer, filtered through 40 μm mesh and measured on DB LSRFortessa. Data was analysed using FlowJo software.\n(§2) MYC inhibition—MYC inhibitor KJ-Pyr-9 or vehicle control was injected intraperitoneally 2 hours following injection of APAP or PBS vehicle control. Briefly, 10 mg of KJ-Pyr-9 (Tocris, cat 5306) was dissolved in 1 ml of DMSO and then combined with Tween 80 and 5% dextrose 1:1:8 by volume. Mice were injected with 0.5 ml per 20 g, so the final dose of KJ-Pyr-9 was 25 mg per kilogram of body mass.\nInhibition of MAPK pathway proteins—The inhibitors listed in Table 1 hereinbelow were injected intraperitoneally 1 hour following injection of 500 mg/kg APAP or corresponding PBS vehicle. Briefly. The inhibitors were dissolved in 5% DMSO in PBS to a final injection volume of 400 μl for 20 g mouse. […]"}, "[2]": {"system": "ALF mouse models", "assay": "Histology score of H&E stained liver sections in ALF mouse models", "format": "in vivo, mice", "conditions": "for liver damage, histopathological analysis: APAP-induced ALF model, inhibitor i.p. 1 hour after 500 mg/kg APAP", "method": "as §1\nHistology—Sample from the left lobe of the liver was fixed in 4% paraformaldehyde, embedded in paraffin, sectioned and stained with hematoxylin and eosin (H&E). Slides were scored by a blinded veterinary pathologist for necrosis and hemorrhage on a scale from 0 (healthy) to 5 (most severe).\nas §2\n(§3) Inhibition of MAPK pathway proteins—The inhibitors listed in Table 1 hereinbelow were injected intraperitoneally 1 hour following injection of 500 mg/kg APAP or corresponding PBS vehicle. Briefly. The inhibitors were dissolved in 5% DMSO in PBS to a final injection volume of 400 μl for 20 g mouse. Control mice were injected with 5% DMSO in PBS vehicle."}, "[3]": {"system": "ALF mouse models", "assay": "Liver enzymes activity measurement (serum ALT and AST) in ALF mouse models", "format": "in vivo, mice", "conditions": "for ALT activity in serum / AST activity in serum: APAP-induced ALF model, inhibitor i.p. 1 hour after 500 mg/kg APAP", "method": "as §1\nMYC inhibition—MYC inhibitor KJ-Pyr-9 or vehicle control was injected intraperitoneally 2 hours following injection of APAP or PBS vehicle control. […] Mice were injected with 0.5 ml per 20 g, so the final dose of KJ-Pyr-9 was 25 mg per kilogram of body mass.\nas §3"}, "[4]": {"system": "stellate, endothelial and Kupffer cells", "assay": "Single cell RNA sequencing of liver cells", "format": "in vivo, mice", "conditions": "for number of differentially expressed genes: pseudobulk counts", "method": "as §1\nFollowing, liver was dissected, placed in cold EBS solution, shaken vigorously with forceps for separation of single cells, followed by filtration through a 100 μm mesh. Hepatocytes were depleted by centrifugation at 30 g for 5 minutes. Cells were then collected by centrifugation at 580 g and resuspended in cold PBS. To enrich for stellate cells, cells with retinoid fluorescence in the Pacific Blue channel were sorted using a BD FACSAria III. Following, stellate cells were mixed with unsorted cells, spun down, resuspended in PBS with 0.04% BSA and counted using Neubauer chamber.\n10× library preparation and sequencing—Single cells were captured and processed using the 10× Genomics Chromium 3′ Single Cell RNA seq protocol according to the manufacturers' manual. Subsequently, RNA was sequenced using NextSeq® 500/550 High Output Kit v2 (Illumina cat no. 20024906).\nas §2\nMapping: Single cell RNA sequencing data were demultiplexed, mapped to the GRCm38 mouse genome and UMIs were counted using the Cell Ranger Single-Cell Software Suite 2.1.1. Filtering and doublet removal: Cells with less than 100 detected transcripts and more than 10% mitochondrial reads were removed. Clustering analysis was used to identify populations of thrombocytes, erythrocytes, neutrophils and mast cells. Following, a second filtering was effected using 600 detected transcripts. […] The second step was necessary, as there were many low quality cells with low threshold. Following, doublets were identified by finding clusters of cells expressing gene expression patterns of two cell types at the same time. Marker sets used were Dcn, Colec11, Ecm1, Cxcl12, Sod3, Angptl6, Rgs5, Reln, Tmem56, Rbp1, G0s2, Rarres2, Acta2, Tagln for stellate cells; Gpihbp1, Aqp1, Clec4g, Dnase113, Fabp4, Ptprb, Kdr, Gpr182 for endothelial cells; Alb, Ttr, Ambp, Rbp4, Cyp2e1, Spp1 for hepatocytes; Cd3e, Cd3g, Cd3d, Lat, Thy1, Cxcr6, Nkg7, Cd4, Cd8b1, Klra4, Ncr1, Gzmb, Lck, Txk, Ms4a4b, Ccl5 for T cells; Cd79b, Cd79a, Ms4a1, Siglecg, Fcmr, Cd19, Fcer2a for B cells; Adgre1, Cd51, Clec4f, Timd4, Folr2, C1qa, C1qb, C1qc, Vsig4, Xcr1, Cd209a, Itgax, Siglech, Chil3, F13a1, S100a4, Lgals3, Gda, S100a9, Retnlg for macrophages, DCs and neutrophils; Alas2, Hbb-bt, Hbb-bs, Hba-a2, Hba-a1 for erythrocytes. Clustering—All cells from all 22 samples were first clustered using R package Seurat v2.3.4 FindClusters function^56. Genes that were present in less than 3 cells were removed and then highly variable genes were identified as having mean of non-zero values between 0.0125 and 3 and standard deviation higher than 0.5. Dimensionality reduction was effected with PCA and first 50 PCs were used for clustering.\nAs the liver population is very complex, it was decided to perform stepwise clustering. First, expression of Ecm1, Ptprc, Ptprb, Epcam, Msln and Alb in the obtained clusters was determined. […]"}, "[5]": {"system": "ALF mouse models", "assay": "Survival of APAP-administered mice", "format": "in vivo", "conditions": "n=15 per group", "method": "as §1, §2"}, "[6]": {"system": "APAP-induced ALF", "conditions": "intravenous; cited from earlier work"}, "[7]": {"conditions": "steady state, endothelial cells"}, "[8]": {"conditions": "both ALF models (APAP, TAA), KJ-Pyr-9 25 mg/kg i.p."}}}
{"compound": "CC[C@@H]1[C@H](F)C(=O)N[C@@H]1COc1nccc2cc(C(N)=O)c(OC)cc12", "note": "[IRAK4 inhibitor, PF 06650833]", "values": [{"measurement": "monocyte infiltration", "setting": "[1]", "value": "significant reduction"}, {"measurement": "liver damage, histopathological analysis", "setting": "[2]", "value": "significantly reduced liver damage"}, {"measurement": "ALT activity in serum", "setting": "[3]", "value": "significantly reduced"}, {"measurement": "AST activity in serum", "setting": "[3]", "value": "significantly reduced"}]}
{"compound": "NC(=O)c1ccc(-c2cc(-c3ccc([N+](=O)[O-])cc3)nc(-c3ccco3)c2)cc1", "note": "[MYCi, KJ-Pyr-9]", "values": [{"measurement": "expression of metallothionein 1 and 2 (Mt1 and Mt2)", "setting": "[4]; ALF", "value": "remained unaffected"}, {"measurement": "neutrophil infiltration", "setting": "[4]; ALF", "value": "not affected"}, {"measurement": "total gene expression level", "setting": "[4]; ALF", "value": "lower total gene expression level"}, {"measurement": "expression of neutrophil attractant chemokine Cxcl2", "setting": "[4]; ALF, Kupffer cells", "value": "did not get downregulated"}, {"measurement": "expression of the 82 genes constituting the common activation signature", "setting": "[4]; ALF, activated stellate, Kupffer and endothelial cell subsets", "value": "markedly attenuated"}, {"measurement": "drop of median number of detected transcripts", "setting": "[4]; ALF, stellate cells", "value": "~4", "unit": "times"}, {"measurement": "upregulation of senescence and cell cycle arrest marker Cdkn1a (coding p21)", "setting": "[4]; ALF, stellate cells", "value": "attenuated"}, {"measurement": "median number of detected transcripts", "setting": "[4]; ALF, stellate cells, 3500 without MYC inhibition", "value": 945}, {"measurement": "activated populations (AAs, AAe, AAk)", "setting": "[4]; during ALF induction", "value": "did not arise"}, {"measurement": "Map3k8 expression (coding for TPL2)", "setting": "[4]; during ALF, activated resident populations", "value": "strong induction"}, {"measurement": "infiltration of Ly6C-positive monocytes to the liver (single cell transcriptomic data)", "setting": "[4]; either APAP- or TAA-induced ALF", "value": "near-total reduction"}, {"measurement": "effect on the gene expression landscape", "setting": "[4]; in the absence of liver failure", "value": "did not feature a notable effect"}, {"measurement": "differentially expressed genes", "setting": "[4]; steady state, Kupffer cells", "value": "downregulation of genes related to antigen processing and presentation"}, {"measurement": "number of differentially expressed genes", "setting": "[4]; steady state, Kupffer cells", "value": 94, "unit": "genes"}, {"measurement": "differentially expressed genes", "setting": "[4]; [7]", "value": "downregulation of genes of the AP1 family"}, {"measurement": "number of differentially expressed genes", "setting": "[4]; [7]", "value": 5, "unit": "genes"}, {"measurement": "gene ontology analysis of differentially expressed genes", "setting": "[4]; steady state, stellate cells", "value": "downregulation of genes coding for ribosome proteins and other components of the translation machinery"}, {"measurement": "number of differentially expressed genes", "setting": "[4]; steady state, stellate cells", "value": 148, "unit": "genes"}, {"measurement": "infiltration of Ly6C-positive monocytes (F4/80 and Ly6C double-positive cells within the immune CD45-positive population)", "setting": "[1]; ALF mice (FIGS. 4C APAP, 19A TAA), KJ-Pyr-9 25 mg/kg i.p. 2 hours after APAP", "value": "dramatic reduction"}, {"measurement": "hepatic damage, tissue histology by H&E staining", "setting": "[2]; during ALF (FIGS. 4F-G APAP, 19C-D TAA), KJ-Pyr-9 25 mg/kg i.p.", "value": "reduced hepatic damage"}, {"measurement": "Serum ALT activity", "setting": "[3]; [8]", "value": "attenuated"}, {"measurement": "Serum AST activity", "setting": "[3]; [8]", "value": "attenuated"}, {"measurement": "mortality", "setting": "[5]", "value": "attenuated"}]}
{"compound": "CC(=O)N[C@@H](CS)C(=O)O", "note": "[N-acetylcysteine]", "values": [{"measurement": "adverse effects including anaphylactic reaction", "setting": "[6]", "value": "≤ 15 % of the cases"}, {"measurement": "effectiveness of the intervention", "setting": "[6]", "value": "only very partially effective"}]}
{"compound": "CN1C(=O)C(Cc2c[nH]c3ccccc23)NC1=S", "note": "(centres unmarked) [RIP1 inhibitor, Nec1]", "values": [{"measurement": "ALT activity in serum", "setting": "[3]", "value": "significantly reduced"}, {"measurement": "AST activity in serum", "setting": "[3]", "value": "significantly reduced"}]}
{"compound": "COc1cc(O)c2c(c1)/C=C/C[C@H](O)[C@H](O)C(=O)/C=C\\C[C@H](C)OC2=O", "note": "[TAK1 inhibitor, 5Z-7-Oxozeaenol]", "values": [{"measurement": "monocyte infiltration", "setting": "[1]", "value": "significant reduction"}, {"measurement": "liver damage, histopathological analysis", "setting": "[2]", "value": "significantly reduced liver damage"}, {"measurement": "AST activity in serum", "setting": "[3]", "value": "significantly reduced"}]}
{"compound": "C[S+]([O-])c1ccc(-c2nc(-c3ccncc3)c(-c3ccc(F)cc3)[nH]2)cc1", "note": "(centres unmarked) [p38 inhibitor, SB203580]", "values": [{"measurement": "monocyte infiltration", "setting": "[1]", "value": "significant reduction"}, {"measurement": "liver damage, histopathological analysis", "setting": "[2]", "value": "significantly reduced liver damage"}, {"measurement": "ALT activity in serum", "setting": "[3]", "value": "significantly reduced"}, {"measurement": "AST activity in serum", "setting": "[3]", "value": "significantly reduced"}]}
